Assays:
[1] = NOVARTIS: Cytotoxicity against human hepatocellular carcinoma cell line (Huh7); format: toxicity, cell-based, Huh-7; settings: Huh7 cells (hepatocellular carcinoma cell line)
Plasmodium falciparum [2] = assay: NOVARTIS: Inhibition of Plasmodium falciparum W2 (drug-resistant) proliferation in erythrocyte-based infection assay; format: functional, organism-based
Plasmodium falciparum [3] = assay: NOVARTIS: Inhibition of Plasmodium falciparum 3D7 (drug-susceptible) proliferation in erythrocyte-based infection assay; format: functional, organism-based; settings: Plasmodium falciparum, 3D7
[4] = Plasmodium falciparum, W2, read-out: EC50

CCn1cc(C(=O)N2CCC(C(=O)c3nccs3)CC2)c(C)n1
CC50 [1]: > 10 µM | EC50 (Plasmodium falciparum [2]; [4]): > 0.418 µM | EC50 (Plasmodium falciparum [3]): > 1.25 µM

O=[N+]([O-])c1cc(Cl)c(N2CCOCC2)cc1N1CCOCC1
CC50 [1]: > 100 µM | EC50 (Plasmodium falciparum [2]; [4]): 0.515 µM | EC50 (Plasmodium falciparum [3]): 1.04 µM

C=CCn1cc(C=NNc2nc3ccccc3[nH]2)c2ccccc21
CC50 [1]: 18.4 µM | EC50 (Plasmodium falciparum [2]; [4]): 0.22 µM | EC50 (Plasmodium falciparum [3]): 0.0913 µM

COc1ccc(NC2=C(c3ccc(OC)cc3)C(=O)c3ccccc32)cc1
CC50 [1]: > 100 µM | EC50 (Plasmodium falciparum [2]; [4]): 0.423 µM | EC50 (Plasmodium falciparum [3]): 0.437 µM

CCOC(=O)COC1=C(CCCCC2CCCCC2)C(=O)c2ccccc2C1=O
CC50 [1]: 31 µM | EC50 (Plasmodium falciparum [2]; [4]): 1.22 µM | EC50 (Plasmodium falciparum [3]): 0.0581 µM

COc1cccc(-c2ccc(O)c(CNC34CC5CC(CC(C5)C3)C4)c2)n1
CC50 [1]: > 100 µM | EC50 (Plasmodium falciparum [2]; [4]): 0.05 µM | EC50 (Plasmodium falciparum [3]): 0.207 µM

Cc1cc(C)c2c(c1)c(-c1ccccc1)c(-c1ccccc1)n2CC(O)Cn1cnc(-c2ccccc2)c1-c1ccccc1 (configuration not stated)
CC50 [1]: > 100 µM | EC50 (Plasmodium falciparum [2]; [4]): 0.155 µM | EC50 (Plasmodium falciparum [3]): 1.35 µM

COC(=O)C1=C(C)NC2=C(C(=O)CC(c3ccc(OC)c(OC)c3)C2)C1c1ccccc1C (configuration not stated)
CC50 [1]: > 100 µM | EC50 (Plasmodium falciparum [2]; [4]): 0.0317 µM | EC50 (Plasmodium falciparum [3]): 0.125 µM

O=C(Nc1nc(-c2ccccc2)cs1)c1ccccc1O
CC50 [1]: 24.3 µM | EC50 (Plasmodium falciparum [2]; [4]): 0.643 µM | EC50 (Plasmodium falciparum [3]): 1 µM

O=C(Nc1ccc(NC(=O)c2ccco2)cc1Cl)c1ccccc1
CC50 [1]: > 10 µM | EC50 (Plasmodium falciparum [2]; [4]): > 0.348 µM | EC50 (Plasmodium falciparum [3]): > 1.65 µM

COCC(=O)NCc1ccc(OC2CCN(CC(c3ccccc3)c3ccccc3)CC2)cc1
CC50 [1]: > 10 µM | EC50 (Plasmodium falciparum [2]; [4]): < 0.0167 µM | EC50 (Plasmodium falciparum [3]): 0.46 µM

CC1=NOC(=O)/C1=C\c1cccs1
CC50 [1]: > 10 µM | EC50 (Plasmodium falciparum [2]; [4]): > 1.24 µM | EC50 (Plasmodium falciparum [3]): > 1.25 µM

COC(=O)c1c(-c2ccccc2Cl)csc1N
CC50 [1]: > 10 µM | EC50 (Plasmodium falciparum [2]; [4]): > 0.854 µM | EC50 (Plasmodium falciparum [3]): > 1.25 µM

C[n+]1ccn(-c2ccc(C(=O)c3ccc(-n4cc[n+](C)c4)cc3)cc2)c1
CC50 [1]: > 10 µM | EC50 (Plasmodium falciparum [2]; [4]): 0.0294 µM | EC50 (Plasmodium falciparum [3]): 0.0335 µM

CCOc1ccc(S(=O)(=O)Oc2cccc3cccnc23)cc1
CC50 [1]: > 10 µM | EC50 (Plasmodium falciparum [2]; [4]): > 1.19 µM | EC50 (Plasmodium falciparum [3]): > 1.69 µM

c1ccc2cc3c(N4CCN(CCN5CCN(c6ccnc7cc8ccccc8cc67)CC5)CC4)ccnc3cc2c1
CC50 [1]: > 100 µM | EC50 (Plasmodium falciparum [2]; [4]): 0.228 µM | EC50 (Plasmodium falciparum [3]): 0.176 µM

O=C(Nc1ccc2oc(-c3ccccc3F)nc2c1)c1ccc([N+](=O)[O-])o1
CC50 [1]: > 100 µM | EC50 (Plasmodium falciparum [2]; [4]): 1.26 µM | EC50 (Plasmodium falciparum [3]): > 12.5 µM

COc1ccccc1C(c1nnnn1Cc1ccc(F)cc1)N1CCN(C)CC1 (configuration not stated)
CC50 [1]: > 100 µM | EC50 (Plasmodium falciparum [2]; [4]): 0.97 µM | EC50 (Plasmodium falciparum [3]): 11.9 µM

COC(=O)c1sc2nc(CN3CCC(C)CC3)ccc2c1NC(=O)c1ccc(C)s1
CC50 [1]: > 100 µM | EC50 (Plasmodium falciparum [2]): No fit | EC50 (Plasmodium falciparum [3]): 9.7 µM

COc1cccc(N2CCN(CCNCCc3ccccc3)[C@@H](Cc3ccc(O)cc3)C2)c1
CC50 [1]: > 10 µM | EC50 (Plasmodium falciparum [2]; [4]): 0.397 µM | EC50 (Plasmodium falciparum [3]): 0.564 µM

Oc1c(CN2CCN(Cc3ccc4cccnc4c3O)CC2)ccc2cccnc12
CC50 [1]: > 89.3 µM | EC50 (Plasmodium falciparum [2]; [4]): 0.318 µM | EC50 (Plasmodium falciparum [3]): 0.561 µM

CCCCNC(=O)N1CCN(C(=O)C(Cc2c[nH]c3ccccc23)NC(=O)Nc2cccc(C#N)c2)CC1C (configuration not stated)
CC50 [1]: > 100 µM | EC50 (Plasmodium falciparum [2]; [4]): 0.191 µM | EC50 (Plasmodium falciparum [3]): 0.153 µM

CC1CCCCN1CCCNc1ncc(C(=O)NCCc2ccccc2)c(Nc2ccccc2)n1 (configuration not stated)
CC50 [1]: > 10 µM | EC50 (Plasmodium falciparum [2]; [4]): > 1.25 µM | EC50 (Plasmodium falciparum [3]): 1.12 µM

CCCCOc1ccc(C(=O)N(C)CCCNc2ccnc3cc(Cl)ccc23)cc1
CC50 [1]: 4.79 µM | EC50 (Plasmodium falciparum [2]; [4]): 0.069 µM | EC50 (Plasmodium falciparum [3]): 0.605 µM

CC(C)CN1C(=O)c2ccccc2C(C(=O)Nc2ccc(CN3CCC(C)CC3)cc2)C1c1cccs1 (configuration not stated)
CC50 [1]: > 100 µM | EC50 (Plasmodium falciparum [2]; [4]): 1.13 µM | EC50 (Plasmodium falciparum [3]): 2.05 µM

CN(C)CCN1CCN(c2ccnc3cc4ccccc4cc23)CC1
CC50 [1]: 1.55 µM | EC50 (Plasmodium falciparum [2]; [4]): 0.369 µM | EC50 (Plasmodium falciparum [3]): 0.108 µM

Cc1cc(Nc2cccc(Cl)c2)nc(NCc2ccccc2)n1
CC50 [1]: 17.1 µM | EC50 (Plasmodium falciparum [2]; [4]): 0.607 µM | EC50 (Plasmodium falciparum [3]): 0.051 µM

CC(C)(C)C(=O)Cn1ccc(=N)c2ccccc21
CC50 [1]: > 100 µM | EC50 (Plasmodium falciparum [2]; [4]): 0.877 µM | EC50 (Plasmodium falciparum [3]): 2.03 µM

CS/C(Cl)=C(/NC(C)=O)[P+](c1ccccc1)(c1ccccc1)c1ccccc1.[O-][Cl+3]([O-])([O-])[O-]
CC50 [1]: > 10 µM | EC50 (Plasmodium falciparum [2]; [4]): 0.1 µM | EC50 (Plasmodium falciparum [3]): 0.115 µM

CCCOC(=O)C1=C(C)NC2=C(C(=O)CC(c3ccc(Cl)cc3)C2)C1c1ccc(Br)cc1 (configuration not stated)
CC50 [1]: > 100 µM | EC50 (Plasmodium falciparum [2]; [4]): 0.198 µM | EC50 (Plasmodium falciparum [3]): 0.498 µM

CCOc1ccc2[nH]c(=O)c(CN(CCc3ccccc3)C(=O)c3cnccn3)cc2c1
CC50 [1]: > 10 µM | EC50 (Plasmodium falciparum [2]; [4]): > 0.397 µM | EC50 (Plasmodium falciparum [3]): > 0.428 µM

CCCCCCN(C(=O)c1cccc(OC)c1)C(CC)c1nc2ccccc2c(=O)n1-c1ccc(Cl)cc1C (configuration not stated)
CC50 [1]: > 10 µM | EC50 (Plasmodium falciparum [2]; [4]): > 0.177 µM | EC50 (Plasmodium falciparum [3]): 1.12 µM

CCCN(CCC)CC(O)COc1ccccc1C(=O)Nc1ccccc1 (configuration not stated)
CC50 [1]: > 100 µM | EC50 (Plasmodium falciparum [2]; [4]): 0.0511 µM | EC50 (Plasmodium falciparum [3]): 0.365 µM

c1ccc(-c2ccc(CNc3ccc4cn[nH]c4c3)cc2)cc1
CC50 [1]: > 10 µM | EC50 (Plasmodium falciparum [2]; [4]): 1.04 µM | EC50 (Plasmodium falciparum [3]): > 1.25 µM
